The source of these data is ChEMBL document CHEMBL3992523, “Potent Inhibition of Nitric Oxide-Releasing Bifendate Derivatives against Drug-Resistant K562/A02 Cells in Vitro and in Vivo” (J Med Chem, 2017).

Structures are written as SMILES. pIC50: −log10 of the molar value. Bounds are passed on as bounds.

Data set [1] in a line: Drug metabolism in P-gp overexpressing/drug resistant human K562/A02 cells assessed as nitric oxide production at 100 uM measured at 240 mins by Griess assay. Type of data set: ADME, cell-based. Particulars: k562/a02, 4 h. In general terms: Nitrite, measured by Griess reagent, commonly stands in for NO production.
In the next data set the test system is K562/A02. Kind of data set: Anti-proliferative activity against P-gp overexpressing/drug resistant human K562/A02 cells measured after 72 hrs by MTS assay. Type of data set: functional, cell-based. The following applies: K562/A02, 72 h.
The next data set concerns K562. Briefly: Anti-proliferative activity against human K562 cells measured after 72 hrs by MTS assay. Type of data set: functional, cell-based. Particulars: K562, 72 h. In general terms: Tetrazolium dyes change colour on reduction, which living cells bring about.
The nature of data set [2]: Resistant factor, ratio of IC50 for P-gp overexpressing/drug resistant human K562/A02 cells to IC50 for human K562 cells. Type of data set: functional.

A word on the pIC50: it is the IC50 on a negative log10 scale, so that one unit is a factor of ten. Turning to `COC(=O)c1cc(OC)c2c(c1-c1c(C(=O)OC3CCN(CC(=O)NCCOc4no[n+]([O-])c4S(=O)(=O)c4ccccc4)CC3)cc(OC)c3c1OCO3)OCO2`, in data set [1], the Drug metabolism result was “Metabolite_Detected”. Moreover, the values for the pIC50 in the data set on K562/A02 and in the data set with K562 were 5.50 and 5.89, respectively. In addition, the “Ratio IC50” value in data set [2] came out at 2.5.
`COC(=O)c1cc(OC)c2c(c1-c1c(C(=O)OCCN3CCN(CC(=O)NCCOc4no[n+]([O-])c4S(=O)(=O)c4ccccc4)CC3)cc(OC)c3c1OCO3)OCO2`: the pIC50 in the data set on K562/A02 is 5.52; in the data set on K562, 6.26. Besides, in data set [2], the “Ratio IC50” value is listed as 5.5.
For the molecule `COC(=O)c1cc(OC)c2c(c1-c1c(C(=O)OC3CCN(CC(=O)OC(C)(C)CCOc4no[n+]([O-])c4S(=O)(=O)c4ccccc4)CC3)cc(OC)c3c1OCO3)OCO2`, the results for the negative logarithm of the IC50 (pIC50) in the data set with K562/A02 and in the data set on K562 were 6.04 and 6.06, respectively. Moreover, the “Ratio IC50” value in data set [2] is given as 1.1.
On the same counts, the results for `O=C(CN1CCC(OC(=O)c2ccccc2)CC1)OCCCCOc1nonc1S(=O)(=O)c1ccccc1` are 5.18, 5.39 and 1.6.
As for `COC(=O)c1cc(OC)c2c(c1-c1c(C(=O)OC3CCN(CC(=O)OCCCOc4no[n+]([O-])c4S(=O)(=O)c4ccccc4)CC3)cc(OC)c3c1OCO3)OCO2`, the pIC50 in the data set on K562/A02 is 6.23; with K562, 6.10. Moreover, the “Ratio IC50” value in data set [2] is given as 0.7.
As for `COC(=O)c1cc(OC)c2c(c1-c1c(C(=O)OCCN3CCN(CC(=O)OCCCOc4no[n+]([O-])c4S(=O)(=O)c4ccccc4)CC3)cc(OC)c3c1OCO3)OCO2`, the Drug metabolism result in data set [1] is on record as “Metabolite_Detected”. For the same molecule, the negative logarithm of the IC50 (pIC50) with K562/A02 was 6.03; in the data set on K562, 6.12. For the same molecule, the “Ratio IC50” value in data set [2] turned out to be 1.2.
As to `COC(=O)c1cc(OC)c2c(c1-c1c(C(=O)OC3CCN(CC(=O)OCCOc4no[n+]([O-])c4S(=O)(=O)c4ccccc4)CC3)cc(OC)c3c1OCO3)OCO2`, the pIC50 in the data set with K562/A02 was 6.19; in the data set on K562, 6.29. For the same molecule, the “Ratio IC50” value in data set [2] came out at 1.3.
For `COC(=O)c1cc(OC)c2c(c1-c1c(C(=O)OCCN3CCN(CC(=O)OC(C)CCOc4no[n+]([O-])c4S(=O)(=O)c4ccccc4)CC3)cc(OC)c3c1OCO3)OCO2` (centres undefined), the negative-log IC50 (pIC50) with K562/A02 was 6.09; in the data set on K562, 6.42. Also, in data set [2], the “Ratio IC50” value was determined as 2.1.
For `COC(=O)c1cc(OC)c2c(c1-c1c(C(=O)OCCN3CCN(CC(=O)OCCOCCOc4no[n+]([O-])c4S(=O)(=O)c4ccccc4)CC3)cc(OC)c3c1OCO3)OCO2`, the pIC50 with K562/A02 was 5.64; in the data set on K562 it was 6.42. In addition, the “Ratio IC50” value in data set [2] turned out to be 6.1.
Turning to `COC(=O)c1cc(OC)c2c(c1-c1c(C(=O)OC3CCN(CC(=O)OCCCCOc4nonc4S(=O)(=O)c4ccccc4)CC3)cc(OC)c3c1OCO3)OCO2`, the Drug metabolism entry in data set [1] was “Metabolite_Notdetected”. The pIC50 in the data set on K562/A02 is 4.14; with K562, 4.17. Moreover, in data set [2], the “Ratio IC50” value amounted to 1.1.
Consider `COC(=O)c1cc(OC)c2c(c1-c1c(C(=O)OC)cc(OC)c3c1OCO3)OCO2` [BIFENDATE], for which the negative logarithm of the IC50 (pIC50) in the data set with K562/A02 and with K562 was under 3.70 in each case.
For the molecule `COC(=O)c1cc(OC)c2c(c1-c1c(C(=O)OCCN3CCN(CC(=O)OCCOc4no[n+]([O-])c4S(=O)(=O)c4ccccc4)CC3)cc(OC)c3c1OCO3)OCO2`, the figures for the pIC50 with K562/A02 and in the data set with K562 were 5.70 and 6.24, respectively. Besides, the “Ratio IC50” value in data set [2] is given as 3.5.
Taken in the same sequence, the figures for `COC(=O)c1cc(OC)c2c(c1-c1c(C(=O)OCCN3CCN(CC(=O)OCCCCOc4no[n+]([O-])c4S(=O)(=O)c4ccccc4)CC3)cc(OC)c3c1OCO3)OCO2` were 5.80, 6.16 and 2.3.
As for `COC(=O)c1cc(OC)c2c(c1-c1c(C(=O)OC3CCN(CC(=O)OC(C)CCOc4no[n+]([O-])c4S(=O)(=O)c4ccccc4)CC3)cc(OC)c3c1OCO3)OCO2` (centres undefined), the pIC50 was 6.12 with K562/A02 and 6.41 in the data set on K562. In data set [2], the “Ratio IC50” value is on record as 1.9.
